Values joined by “and” are separate entries in the source; they are usually repeats but may differ in a detail not shown here. Equal values may be shown once. Read-outs that look alike come from different tables or passages of the source.
Tests used:
[1] = humans; cited from earlier work
[2] = set-up: method as in PMID 33201517, PMID 18353799; details: laboratory rodents; cited from earlier work
[3] = set-up: method as in PMID 33201517; details: laboratory mice and non-human primates; cited from earlier work
[4] = target: T1, human Na+/taurocholate cotransporting polypeptide (NTCP) (Homo sapiens, UniProt Q14973); test: Inhibition of NTCP-mediated [3H]-taurocholate uptake in NTCP-expressing HEK293 cells; assay type: cell-based; details: for IC50 / inhibition of NTCP-mediated taurocholate uptake: 1 μM [3H]-taurocholate, 1 min, 37 °C; for IC50: sodium-containing buffer, 3 independent experiments; for statistically significant inhibition of taurocholate uptake / inhibition of NTCP-mediated taurocholate uptake: 10 μM PFCA; for statistically significant inhibition of taurocholate uptake: 1 μM taurocholate, p < 0.05 vs control; for inhibition of NTCP-mediated taurocholate uptake: NTCP-HEK293
T1 construct: containing the human NTCP open reading frame with a C-terminal 6-His tag; expressed in transfected cells
T1 sequence (Q14973 1-349): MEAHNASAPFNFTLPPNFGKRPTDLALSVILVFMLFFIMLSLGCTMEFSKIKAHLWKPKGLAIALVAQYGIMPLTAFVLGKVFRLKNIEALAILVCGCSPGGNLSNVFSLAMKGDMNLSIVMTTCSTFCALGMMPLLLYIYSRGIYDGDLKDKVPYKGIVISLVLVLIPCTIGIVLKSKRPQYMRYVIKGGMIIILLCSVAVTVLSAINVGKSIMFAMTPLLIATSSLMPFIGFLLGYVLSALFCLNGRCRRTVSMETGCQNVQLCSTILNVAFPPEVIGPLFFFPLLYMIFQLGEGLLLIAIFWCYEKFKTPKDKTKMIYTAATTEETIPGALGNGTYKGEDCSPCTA
Protocol: (§1) Flp-In™-293 (HEK293) cells were purchased from Thermo Fisher Scientific (Waltham, MA, USA) and grown at 37 °C in a humidified 5% CO2 atmosphere in Dulbecco’s Modified Eagle’s Medium (DMEM) obtained from the American Type Culture Collection (ATCC, Manassas, VA, USA: 30-2002). The medium was supplemented with 10% fetal bovine serum (FBS) (Hyclone, Logan, UT, USA), and 100 U/mL penicillin, 100 μg/mL streptomycin (Thermo fisher Scientific). The pcDNA5/FRT plasmid containing the human NTCP open reading frame with a C-terminal 6-His tag was used to generate a stable NTCP-expressing cell line using hygromycin selection. A single clone was isolated using a cloning cylinder and cultivated in the above DMEM with the addition of 500 μg/mL hygromycin (Thermo Fisher Scientific). For transport experiments, cells were plated on poly-D-lysine-coated 24-well plates at 300,000 cells per well for uptake experiments after 48 h or at 200,000 cells per well for uptake experiments after 72 h. Uptake experiments and LC-MS/MS analysis were performed at the time points indicated in the figure legends as previously described.
To investigate whether PFCAs would interact with the human Na^+/taurocholate cotransporting polypeptide (NTCP), we determined to what extent perfluorinated carboxylic acids with chain lengths from 3 to 18 carbon atoms (C3 to C18) would inhibit NTCP-mediated taurocholate uptake. For these experiments, we measured the uptake of 1 μM taurocholate in the presence and absence of 10 or 100 μM of each of the PFCAs.
Figure 1. […] Uptake was measured in sodium-containing (NaCl) or sodium-free (ChCl) buffer for 1 min at 37 °C and corrected for protein. Uptake then was normalized to control (NaCl) and individual values of 1 or 2 experiments performed in triplicates are presented. Bars represent the mean ± SD, asterisks indicate significant differences to the control (NaCl) at p < 0.05.
For these experiments, NTCP-mediated uptake of 1 μM taurocholate was measured in the absence and presence of increasing concentrations of perfluorinated compounds. For PFOA and PFNA, the concentrations ranged from 0.1 to 1000 μM, while the concentrations for PFDA were between 0.1 and 100 μM, due to solubility limitations.
Figure 2. […] Uptake of 1 μM [^3H]-taurocholate was measured into NTCP-expressing HEK293 cells in the absence or presence of increasing concentrations of (A) perfluorooctanoic acid (PFOA), (B) perfluorononanoic acid (PFNA), or (C) perfluorodecanoic acid (PFDA). Uptake was measured for 1 min at 37 °C in a sodium-containing buffer and corrected for protein. After conversion of the data to percent of control, IC50 values were calculated using GraphPad Prism V9 using the “One site-Fit logIC50” equation from 3 independent experiments performed in triplicates. The 95% confidence intervals are given in parentheses.

human NTCP = target: T2, human NTCP (Homo sapiens, UniProt Q14973); test: Sodium-dependent NTCP-mediated uptake of PFCAs into NTCP-expressing HEK293 cells (LC-MS/MS); assay type: in vitro ADME; details: for transport by NTCP (substrate, words): sodium-dependent uptake in NTCP-HEK293
T2 construct: containing the human NTCP open reading frame with a C-terminal 6-His tag; expressed in transfected cells
T2 sequence (Q14973 1-349): T1 sequence (Q14973 1-349)
Protocol: as §1
To resolve whether PFOA, PFNA, and PFDA were substrates of NTCP, we measured the transport of these compounds. […] To better characterize this transport, we wanted to perform kinetics experiments and determine the Km and Vmax values for the three compounds. Therefore, in Figure 4, we determined the initial linear rate conditions in which to perform the kinetics experiments. We evaluated the time-dependent uptake of PFOA, PFNA, and PFDA at 10 and 300 μM in NTCP-expressing HEK293 cells in sodium-containing and sodium-free buffer. While there is a time-dependent uptake of all three PFCAs, most likely due to organic anion transporters expressed in HEK293 cells, NTCP only transports its substrates in the presence of sodium. Therefore, we calculated the net sodium-dependent uptake. Based on the time-dependent sodium-dependent uptake results shown in Figure 4, we used 20 s for PFOA (Figure 4A), 30 s for PFNA (Figure 4B), and 1 min for PFDA (Figure 4C) to perform the concentration-dependent uptake kinetics.
Figure 4. Time dependency of NTCP-mediated PFOA, PFNA, and PFDA uptake. Uptake of (A) perfluorooctanoic acid (PFOA), (B) perfluorononanoic acid (PFNA), or (C) perfluorodecanoic acid (PFDA) was measured in NTCP-expressing HEK293 cells in sodium-containing (NaCl; solid lines) or sodium-free (ChCl; dotted lines) buffer at the indicated times at 37 °C and corrected for protein. The net sodium-dependent uptake (net; dashed lines) is also shown. The results are presented as means ± SD of two combined independent experiments performed in triplicates.
For the concentration-dependent uptake of […], we were limited by solubility and could only determine uptake up to a concentration of 1 mM. […] Therefore, no kinetic constants could be calculated for PFDA.
Figure 5. Kinetics of NTCP-mediated PFOA and PFNA uptake. Uptake of increasing concentrations of (A) perfluorooctanoic acid (PFOA) or (B) perfluorononanoic acid (PFNA) was measured at 37 °C for 20 (PFOA) or 30 s (PFNA) in NTCP-expressing HEK293 cells in sodium-containing or sodium-free buffer and corrected for protein. Net uptake was calculated by subtracting uptake in the sodium-free medium from uptake in the sodium-containing medium. Values are mean ± SD of three independent experiments parformed in triplicates. Curves were fit using the Michaelis–Menten equation in GraphPad Prism V9.

[5] = target: T1, human Na+/taurocholate cotransporting polypeptide (NTCP); test: Inhibition kinetics of NTCP-mediated taurocholate transport in NTCP-expressing HEK293 cells; assay type: cell-based; details: for type of inhibition of NTCP-mediated taurocholate uptake: inhibition kinetics, best fit
Protocol: as §1
Figure 3. Kinetics of taurocholate uptake in the absence and presence of PFOA, PFNA, and PFDA. Uptake of increasing concentrations of [^3H]-taurocholate into NTCP-expressing HEK293 cells was measured for 15 s (within the initial linear rate) at 37 °C in a sodium-containing buffer in the absence or presence of 10 and 100 μM of (A) PFOA, (B) PFDA, or (C) PFNA. After correction for protein, the results were analyzed using GraphPad Prism V9 using the “Enzyme kinetics–Inhibition” equations. […] Mean ± SD values of two independent experiments performed in triplicate are shown.

NTCP = tested on: NTCP; set-up: method as in PMID 26001962; details: perfluoroalkyl sulfonates, previously obtained; cited from earlier work
[6] = in presence of 10 μM PFCA, 95% CI in parentheses
[7] = in presence of 100 μM PFCA, 95% CI in parentheses
[8] = competitive inhibition fit, taurocholate uptake 15 s, 37 °C, 0, 10 and 100 μM PFCA, table: 95% CI in parentheses, read-out: Ki

SMILES	IC50 [4] [µM]	transport by NTCP (substrate, words) (human NTCP)	Vmax of taurocholate uptake [5, 6]	Vmax of taurocholate uptake [5, 7]	type of inhibition of NTCP-mediated taurocholate uptake [5]	Km (NTCP) [µM]	other results
O=C(O)C(F)(F)C(F)(F)C(F)(F)F [PFBA, perfluorobutanoic acid]	–	–	–	–	–	–	serum elimination half-life [1]: a few days; serum elimination half-life [2]: a few hours
O=C(O)C(F)(F)C(F)(F)C(F)(F)C(F)(F)C(F)(F)C(F)(F)C(F)(F)F [PFOA, perfluorooctanoic acid]	28	can transport	3.0 (2.8–3.2) nmol/mg·min	2.8 (2.6–3.1) nmol/mg·min	competitive inhibitors	–	serum elimination half-life [3]: days to weeks; statistically significant inhibition of taurocholate uptake [4]: statistically significant inhibitors at 10 μM, but to a lesser extent; serum elimination half-life [1]: several years; Ki value lower than Km value (human NTCP; Ki (taurocholate uptake inhibition) versus Km (own transport)): about 100 fold; Ki [5]: 17 µM
O=S(=O)(O)C(F)(F)C(F)(F)C(F)(F)C(F)(F)C(F)(F)C(F)(F)F [PFHxS, perfluorohexane sulfonate]	–	–	–	–	–	112	–
O=S(=O)(O)C(F)(F)C(F)(F)C(F)(F)C(F)(F)C(F)(F)C(F)(F)C(F)(F)C(F)(F)F [PFOS, perfluorooctane sulfonate]	–	–	–	–	–	130	–
O=C(O)C(F)(F)C(F)(F)C(F)(F)C(F)(F)C(F)(F)C(F)(F)C(F)(F)C(F)(F)C(F)(F)C(F)(F)F [perfluoroundecanoic acid]	–	–	–	–	–	–	statistically significant inhibition of taurocholate uptake [4]: statistically significant inhibitors at 10 μM, but to a lesser extent
O=S(=O)(O)C(F)(F)C(F)(F)C(F)(F)C(F)(F)F [PFBS, perfluorobutane sulfonate]	–	–	–	–	–	39.6	–
O=C(O)C(F)(F)C(F)(F)C(F)(F)C(F)(F)C(F)(F)C(F)(F)C(F)(F)C(F)(F)F [PFNA, perfluorononanoic acid]	7.5	can transport	3.5 (3.2–3.7) nmol/mg·min	3.1 (2.5–4.1) nmol/mg·min	competitive inhibitors	–	inhibition of NTCP-mediated taurocholate uptake [4]: 60–70%; Vmax of sodium-dependent NTCP-mediated PFCA uptake (human NTCP; net sodium-dependent uptake, 37 °C, 20 s (PFOA) or 30 s (PFNA)): 670 ± 391 nmol/mg/min; Km (human NTCP; net sodium-dependent uptake, 37 °C, 20 s (PFOA) or 30 s (PFNA), PFNA value a rough estimate, saturation not reached, read-out: Km of sodium-dependent NTCP-mediated PFCA uptake): 5300 ± 3500 µM; Ki [5, 8]: 12.3 µM and 12 µM
O=C(O)C(F)(F)C(F)(F)C(F)(F)C(F)(F)C(F)(F)C(F)(F)C(F)(F)C(F)(F)C(F)(F)F [PFDA, Perfluorodecanoic acid]	9.5	can transport	3.2 (3.0–3.4) nmol/mg·min	2.5 (2.2–3.0) nmol/mg·min	competitive inhibitors	–	inhibition of NTCP-mediated taurocholate uptake [4]: 60–70%; saturation of sodium-dependent uptake (human NTCP; concentration range tested up to 300 mM (so in the source), 1 min): did not reach saturation; Ki [5, 8]: 8.3 µM
C[C@H](CCC(=O)NCCS(=O)(=O)O)[C@H]1CC[C@H]2[C@@H]3[C@H](O)C[C@@H]4C[C@H](O)CC[C@]4(C)[C@H]3C[C@H](O)[C@]12C [taurocholate, reference compound]	–	–	–	–	–	–	Vmax of taurocholate uptake ([5]; concentration of PFCA 0 (control of each PFCA series), 95% CI in parentheses): 2.9 (2.7–3.2) nmol/mg·min and 3.2 (2.9–3.4) nmol/mg·min and 3.5 (3.2–3.8) nmol/mg·min; Km ([5]; concentration of PFCA 0 (control of each PFCA series), 95% CI in parentheses, read-out: Km of taurocholate uptake): 12 µM and 16 µM

Source: PMC8562773, “Perfluoroalkyl Carboxylic Acids Interact with the Human Bile Acid Transporter NTCP” (Livers, 2021)
